From publication PMC9575645 (Signal Transduction and Targeted Therapy, 2022)
Read-outs that look alike come from different tables or passages of the source.

How the values were obtained:
[1] = test system: palmitic and oleic acids; assay: LC-MS quantification of palmitic and oleic acids in IAV-infected A549 cells; format: cell-based, human; conditions: 20 μM
Description: The difference in saturated and unsaturated FFAs between the untreated and the treated cells after infection with IAV or SARS-CoV-2 was determined by GC-FID and LC-MS as previously reported,[11] and detailed procedures are described in Supplementary Information.
The amount of palmitic and oleic acids in the untreated and treated cells after infection with IAV was determined by LC-MS. In brief, A549 cells infected with IAV PR8 strain at an MOI of 0.1 were vehicle-treated, or treated with 20 μM atglistatin or CAY10499 at 12 hpi, or treated with 20 μM atglistatin or CAY10499 and then supplemented individually with 100 μM of PA or OA at 12 hpi, and incubated further for 12 h. Afterward, cells were collected for FFA extraction. 700 μL Chloroform : Methanol (2:1) was added to the freeze cell pellets and vortexed for 1 min. The mixture was sonicated for 5 min and re-vortexed for 1 min. The mixture was centrifuged at 13,000 rpm for 8 min, and the lower organic layer was collected and transferred into a micro-tube. Using vacuum concentrator, the extracts were dried. Finally, the extracts were re-dissolved by methanol and centrifuged at 13,000 rpm for 5 min. The supernatants were transferred into LC-MS vials. […] The standard compounds as well as extracted samples were analyzed in selective ion monitoring (SIM) mode using the ESI source by monitoring the H^- adducts ions. […]

[2] = mouse, in vivo, ip
[3] = test system: A549; assay: Cytotoxicity, MTT assay, A549; format: cell-based, human
Description: The cytotoxic effects of the chemicals and their solvents were tested by the MTT assay,[44] and its procedure is described in Supplementary Information.
The cytotoxic effects of the chemicals and their solvents used were tested by the MTT assay as described previously.^10 In brief, the chemicals were dissolved in DMSO to a stock concentration of 10 mM, and then freshly serially diluted in serum-free medium before being added to cell culture monolayers. The absorbance was measured using an enzyme-linked immunosorbent assay (ELISA) reader at an optical density (OD) of 570 nm. The percent cell viability was calculated using the following formula, [(ODsample˗ODblank)/(ODcontrol˗ODblank)] × 100%. According to the cell cytotoxicity data, dose-response curves were generated for the calculation of CC50 using GraphPad Prism software version 8.4.2.

[4] = In vivo toxicity in hamsters (body weight, gross and histopathological organ changes)
Description: Three groups of 3 hamsters were treated intraperitoneally with 20, 40, and 80 mg kg^-1 d^-1 of atglistatin prepared in a 100 μL vehicle [50% PEG400 in water (vol/vol)] Bid with a 12 h interval for four and a half consecutive days, respectively (Table S10). One group of 3 control anesthetized hamsters was administered intraperitoneally with 100 μL vehicle Bid with a 12 h interval for four and a half consecutive days (Table S10).
Histopathological changes in lungs, liver, kidney, heart, and spleen from the experimental mice or hamsters in each experimental group were determined as described elsewhere.^35 Briefly, each sample from the mice or hamsters in each experimental group was fixed in sufficient 10% neutral formalin at 20°C for 3-4 days, washed in tap water, then trimmed, and thereafter processed in the automatic embedding machine for the dehydration and paraffin embedment. Tissue sections, prepared on slides at a thickness of 3 μm by a microtome, were used for hematoxylin and eosin (H&E) staining or IHC as described below. H&E stained sections were observed under light microscopy. The morphological changes to lung, liver, kidney, heart, and spleen tissues were reviewed in a blinded manner as previous described.^35

[5] = test system: SARS-CoV-2 KCDC03 strain; format: in vivo, Syrian hamsters

COc1nn(-c2ccc(NC(=O)OCc3ccccc3)c(C)c2)c(=O)o1 [CAY10499]
levels of PA and OA (LC-MS) [1]: significantly reduced
overt signs of toxicity, including loss of body weight [2]: did not induce any overt signs of toxicity
CC50 [3]: 106 ± 8.9 µM

CN(C)C(=O)Nc1cccc(-c2ccc(N(C)C)cc2)c1 [Atglistatin]
levels of PA and OA (LC-MS) [1]: significantly reduced
toxicity, including body weight loss ([4]; 80 mg kg^-1 d^-1 atglistatin and 2.5 mg kg^-1 d^-1 remdesivir, singly or in combination): no toxicity
gross and histopathological changes in major organs (liver, lung, kidney, heart, spleen) ([4]; 20, 40, or 80 mg kg^-1 d^-1 Bid for 4.5 consecutive days): no gross and histopathological changes
overt signs of toxicity, including loss of body weight ([4]; intraperitoneal 80 mg kg^-1 d^-1): did not induce any overt signs of toxicity
gross lung lesions ([5]; […], different concentrations (20, 40, 80 mg kg^-1 d^-1)): improved gross lung lesions in a dose-dependent manner
FFA and glycerol release from LDs in lungs ([5]; hamster, in vivo): inhibition of FFA and glycerol release
IFN-α and IFN-β production ([5]; hamster, in vivo): no effect
levels of TNF-α, IL-6, and MCP-1 ([5]; hamster, in vivo): reduced
reduction in lung lesions ([5]; hamster, in vivo): 72%
CC50 [3]: 206 ± 3 µM
